{
  "source": "patent US9062074B2",
  "about": "“(9E)-15-(2-pyrrolidin-1-yl-ethoxy)-7,12,25-trioxa-19,21,24-triaza-tetracyclo[18.3.1.1(2.5).1(14,18)]hexacosa-1(24),2,4,9,14,16,18(26),20,22-nonaene citrate salt” (CTI BioPharma Corp., priority 2009, dated 2015)",
  "test": "Gravimetric Vapour Sorption (GVS)",
  "type": "physicochemical",
  "description": "Sorption isotherms were obtained using a SMS DVS Intrinsic moisture sorption analyser, controlled by SMS Analysis Suite software. The sample temperature was maintained at 25° C. by the instrument controls. The humidity was controlled by mixing streams of dry and wet nitrogen, with a total flow rate of 200 ml.min^−1. The relative humidity was measured by a calibrated Rotronic probe (dynamic range of 1.0-100% RH), located near the sample. The weight change, (mass relaxation) of the sample as a function of % RH was constantly monitored by the microbalance (accuracy ±0.005 mg). Typically 5-20 mg of sample was placed in a tared mesh stainless steel basket under ambient conditions. The sample was loaded and unloaded at 40% RH and 25° C. (typical room conditions). A moisture sorption isotherm was performed as outlined below (2 scans giving 1 complete cycle). The standard isotherm was performed at 25° C. at 10% RH intervals over a 0.5-90% RH range.\nThe hygroscopicity of the citrate was investigated by carrying out a gravimetric vapour sorption experiment on Batch 4. A sample of approximately 20 mg was held at 25° C. whilst the humidity of its environment was changed through two complete cycles. […] The sample takes longer to reach equilibrium in the early stages of the experiment. This may be due to displacement of residual solvent.",
  "data": [
    {"smiles": "C1=C2COC/C=C/COCc3cc(ccc3OCCN3CCCC3)Nc3nccc(n3)C(=C1)O2", "note": "[Batch 4]", "values": [
      {"measurement": "Gravimetric Vapour Sorption Max weight change", "value": "< 1", "unit": "%"},
      {"measurement": "Sorp Mass Change", "setting": "Cycle 1 adsorption, Target RH 40.0%, 25° C.", "value": "−0.1186", "unit": "%"},
      {"measurement": "Sorp Mass Change", "setting": "Cycle 1 adsorption, Target RH 50.0%, 25° C.", "value": "−0.0817", "unit": "%"},
      {"measurement": "Sorp Mass Change", "setting": "Cycle 1 adsorption, Target RH 60.0%, 25° C.", "value": 0.0329, "unit": "%"},
      {"measurement": "Sorp Mass Change", "setting": "Cycle 1 adsorption, Target RH 70.0%, 25° C.", "value": 0.1086, "unit": "%"},
      {"measurement": "Sorp Mass Change", "setting": "Cycle 1 adsorption, Target RH 80.0%, 25° C.", "value": 0.2342, "unit": "%"},
      {"measurement": "Sorp Mass Change", "setting": "Cycle 1 adsorption, Target RH 90.0%, 25° C.", "value": 0.5631, "unit": "%"},
      {"measurement": "Sorp Mass Change", "setting": "Cycle 1 desorption, Target RH 0.0%, 25° C.", "value": "−0.2816", "unit": "%"},
      {"measurement": "Sorp Mass Change", "setting": "Cycle 1 desorption, Target RH 10.0%, 25° C.", "value": "−0.2093", "unit": "%"},
      {"measurement": "Sorp Mass Change", "setting": "Cycle 1 desorption, Target RH 20.0%, 25° C.", "value": "−0.1545", "unit": "%"},
      {"measurement": "Sorp Mass Change", "setting": "Cycle 1 desorption, Target RH 30.0%, 25° C.", "value": "−0.1076", "unit": "%"},
      {"measurement": "Sorp Mass Change", "setting": "Cycle 1 desorption, Target RH 40.0%, 25° C.", "value": "−0.0548", "unit": "%"},
      {"measurement": "Sorp Mass Change", "setting": "Cycle 1 desorption, Target RH 50.0%, 25° C.", "value": 0.0100, "unit": "%"},
      {"measurement": "Sorp Mass Change", "setting": "Cycle 1 desorption, Target RH 60.0%, 25° C.", "value": 0.0743, "unit": "%"},
      {"measurement": "Sorp Mass Change", "setting": "Cycle 1 desorption, Target RH 70.0%, 25° C.", "value": 0.1610, "unit": "%"},
      {"measurement": "Sorp Mass Change", "setting": "Cycle 1 desorption, Target RH 80.0%, 25° C.", "value": 0.2905, "unit": "%"},
      {"measurement": "Sorp Mass Change", "setting": "Cycle 1 desorption, Target RH 90.0%, 25° C.", "value": 0.5631, "unit": "%"},
      {"measurement": "Sorp Mass Change", "setting": "Cycle 1 readsorption, Target RH 0.0%, 25° C.", "value": "−0.2816", "unit": "%"},
      {"measurement": "Sorp Mass Change", "setting": "Cycle 1 readsorption, Target RH 10.0%, 25° C.", "value": "−0.2138", "unit": "%"},
      {"measurement": "Sorp Mass Change", "setting": "Cycle 1 readsorption, Target RH 20.0%, 25° C.", "value": "−0.1620", "unit": "%"},
      {"measurement": "Sorp Mass Change", "setting": "Cycle 1 readsorption, Target RH 30.0%, 25° C.", "value": "−0.1146", "unit": "%"},
      {"measurement": "Sorp Mass Change", "setting": "Cycle 1 readsorption, Target RH 40.0%, 25° C.", "value": "−0.0643", "unit": "%"},
      {"measurement": "Sorp Mass Change", "setting": "Cycle 2 desorption (first segment, RH 40 to 90), Target RH 40.0%, 25° C.", "value": "−0.0643", "unit": "%"},
      {"measurement": "Sorp Mass Change", "setting": "Cycle 2 desorption (first segment, RH 40 to 90), Target RH 50.0%, 25° C.", "value": "−0.0100", "unit": "%"},
      {"measurement": "Sorp Mass Change", "setting": "Cycle 2 desorption (first segment, RH 40 to 90), Target RH 60.0%, 25° C.", "value": 0.0513, "unit": "%"},
      {"measurement": "Sorp Mass Change", "setting": "Cycle 2 desorption (first segment, RH 40 to 90), Target RH 70.0%, 25° C.", "value": 0.1281, "unit": "%"},
      {"measurement": "Sorp Mass Change", "setting": "Cycle 2 desorption (first segment, RH 40 to 90), Target RH 80.0%, 25° C.", "value": 0.2567, "unit": "%"},
      {"measurement": "Sorp Mass Change", "setting": "Cycle 2 desorption (first segment, RH 40 to 90), Target RH 90.0%, 25° C.", "value": 0.5397, "unit": "%"},
      {"measurement": "Sorp Mass Change", "setting": "Cycle 2 desorption (second segment, RH 90 to 0), Target RH 0.0%, 25° C.", "value": "−0.2836", "unit": "%"},
      {"measurement": "Sorp Mass Change", "setting": "Cycle 2 desorption (second segment, RH 90 to 0), Target RH 10.0%, 25° C.", "value": "−0.2093", "unit": "%"},
      {"measurement": "Sorp Mass Change", "setting": "Cycle 2 desorption (second segment, RH 90 to 0), Target RH 20.0%, 25° C.", "value": "−0.1565", "unit": "%"},
      {"measurement": "Sorp Mass Change", "setting": "Cycle 2 desorption (second segment, RH 90 to 0), Target RH 30.0%, 25° C.", "value": "−0.1032", "unit": "%"},
      {"measurement": "Sorp Mass Change", "setting": "Cycle 2 desorption (second segment, RH 90 to 0), Target RH 40.0%, 25° C.", "value": "−0.0528", "unit": "%"},
      {"measurement": "Sorp Mass Change", "setting": "Cycle 2 desorption (second segment, RH 90 to 0), Target RH 50.0%, 25° C.", "value": 0.0045, "unit": "%"},
      {"measurement": "Sorp Mass Change", "setting": "Cycle 2 desorption (second segment, RH 90 to 0), Target RH 60.0%, 25° C.", "value": 0.0738, "unit": "%"},
      {"measurement": "Sorp Mass Change", "setting": "Cycle 2 desorption (second segment, RH 90 to 0), Target RH 70.0%, 25° C.", "value": 0.1535, "unit": "%"},
      {"measurement": "Sorp Mass Change", "setting": "Cycle 2 desorption (second segment, RH 90 to 0), Target RH 80.0%, 25° C.", "value": 0.2771, "unit": "%"},
      {"measurement": "Sorp Mass Change", "setting": "Cycle 2 desorption (second segment, RH 90 to 0), Target RH 90.0%, 25° C.", "value": 0.5397, "unit": "%"},
      {"measurement": "Sorp Mass Change", "setting": "Cycle 2 readsorption, Target RH 0.0%, 25° C.", "value": "−0.2863", "unit": "%"},
      {"measurement": "Sorp Mass Change", "setting": "Cycle 2 readsorption, Target RH 10.0%, 25° C.", "value": "−0.2168", "unit": "%"},
      {"measurement": "Sorp Mass Change", "setting": "Cycle 2 readsorption, Target RH 20.0%, 25° C.", "value": "−0.1630", "unit": "%"},
      {"measurement": "Sorp Mass Change", "setting": "Cycle 2 readsorption, Target RH 30.0%, 25° C.", "value": "−0.1116", "unit": "%"},
      {"measurement": "Sorp Mass Change", "setting": "Cycle 2 readsorption, Target RH 40.0%, 25° C.", "value": "−0.0653", "unit": "%"},
      {"measurement": "water taken up (isotherm plot)", "setting": "between 40% RH and 90% RH, 25° C.", "value": "< 0.6", "unit": "%"},
      {"measurement": "phase change after GVS experiment (XRPD)", "setting": "sample retrieved at end of GVS", "value": "no overall phase change"}
    ]}
  ]
}
